PubChem BioAssay (NCI)
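Method: 48-hour compound exposure of cells in 96-well plates, five concentrations, linear interpolation of endpoints. Abbreviation: GI50, concentration required for 50% inhibition of growth. TGI is the concentration that stops growth completely.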

What was measured:
Experiment in all cases: growth of human tumour cells (NCI), 48 h
SF-295 CNS = system: SF-295 CNS
SK-OV-3 ovarian = system: SK-OV-3 ovarian
A549 NSCLC = system: A549 NSCLC
NCI-H226 lung = system: NCI-H226 lung
HOP-92 NSCLC = system: HOP-92 NSCLC
UO-31 renal = system: UO-31 renal
K-562 leukemia = system: K-562 leukemia
SK-MEL-28 melanoma = system: SK-MEL-28 melanoma
UACC-257 melanoma = system: UACC-257 melanoma
CCRF-CEM leukemia = system: CCRF-CEM leukemia

| Compound | TGI (SF-295 CNS) [µM] | TGI (SK-OV-3 ovarian) [µM] | TGI (A549 NSCLC) [µM] | TGI (NCI-H226 lung) [µM] | TGI (HOP-92 NSCLC) [µM] | TGI (UO-31 renal) [µM] | TGI (K-562 leukemia) [µM] | TGI (SK-MEL-28 melanoma) [µM] | TGI (UACC-257 melanoma) [µM] | TGI (CCRF-CEM leukemia) [µM] | GI50 (SK-OV-3 ovarian) [µM] | GI50 (A549 NSCLC) [µM] | GI50 (HOP-92 NSCLC) [µM] | GI50 (UO-31 renal) [µM] | GI50 (K-562 leukemia) [µM] | GI50 (SK-MEL-28 melanoma) [µM] | GI50 (UACC-257 melanoma) [µM] | GI50 (CCRF-CEM leukemia) [µM] | GI50 (SF-295 CNS) [µM] | GI50 (NCI-H226 lung) [µM] |
| --- | --- | --- | --- | --- | --- | --- | --- | --- | --- | --- | --- | --- | --- | --- | --- | --- | --- | --- | --- | --- |
| CC(=N/NC(=S)N1CCCCCC1)/C(C)=N\NC(=S)N1CCCCCC1 | 12.5 | 8.85 | 18.1 | 9.23 | 2.77 | 54.3 | > 100 | 3.56 | 13.7 |  |  |  |  |  |  |  |  |  |  |  |
| [N-]=[N+]=CC(=O)C1(C(=O)C=[N+]=[N-])CC1 | > 100 | > 100 | > 100 | > 100 |  | > 100 | > 100 | > 100 | > 100 | > 100 |  |  |  |  |  |  |  |  |  |  |
| C/C=C1\CC(C(=O)OCC)CCCCCCC1=O (stereo not drawn) | > 100 | > 100 | > 100 | > 100 |  | > 100 |  | > 100 | > 100 | > 100 |  |  |  |  |  |  |  |  |  |  |
| Cc1c(C)c2c(c(C)c1OC(=O)CCC(=O)[O-])CCC(C)(CCCCCCCCCCC[P+](c1ccccc1)(c1ccccc1)c1ccccc1)O2 (stereo not drawn) |  | 0.538 | 4.58 |  | 0.276 | 1.42 | 50 | 0.829 | 0.512 | 1.31 | 0.157 | 0.234 | 0.078 | 0.744 | 0.182 | 0.241 | 0.151 | 0.226 |  |  |
| CCCCn1c(-c2ccccc2)cs/c1=N\N=C1C=C(C(C)(C)C)C(=O)C(C(C)(C)C)=C1 | > 100 |  | > 100 | > 100 |  | > 100 | > 100 |  | > 100 | > 100 |  |  |  |  |  |  |  |  |  |  |
| COc1ccccc1-n1cnc2c1NC(C)(C)N=C2C(N)=O | > 100 | > 100 | > 100 | > 100 |  |  | > 100 | > 100 | > 100 | > 100 |  |  |  |  |  |  |  |  |  |  |
| Cc1cc(C)cc(Nc2nnc3n2S(=O)(=O)c2cc(C)c(Cl)cc2S3)c1 | > 100 | > 100 | 45.1 | 30.5 |  | > 100 | > 100 | > 100 | 30.5 | > 100 |  |  |  |  |  |  |  |  |  |  |
| N=c1c2sc3nc4ccccc4n3c2ncn1Cc1ccccc1 | > 100 | > 100 | > 100 | > 100 | > 100 | > 100 |  | > 100 | > 100 | > 100 |  |  |  |  |  |  |  |  |  |  |
| C=CCn1c(-c2cc(C(C)(C)C)c(O)c(C(C)(C)C)c2)cs/c1=N\C(P(=O)(O)O)P(=O)(O)O | > 100 | > 100 | > 100 | > 100 | > 100 | > 100 | > 100 | > 100 |  |  |  |  |  |  |  |  |  |  |  |  |
| Cc1sc2c(c1C)C(=O)c1cccn1-2 | > 100 | > 100 | > 100 | > 100 |  | > 100 | > 100 | > 100 | > 100 | > 100 |  |  |  |  |  |  |  |  |  |  |
| COc1cc(C2CC(C)(N3CCOCC3)Oc3cc4c(cc32)OCO4)cc(OC)c1OC (stereo not drawn) |  | > 80.5 | > 100 | > 88.4 | > 100 | > 100 | > 100 |  | > 100 |  |  |  |  |  |  |  |  |  |  |  |
| C=C1CC[C@@]2(C)[C@@H]([C@@H]1C)[C@H]1CC[C@@H]3[C@@]4(C)CC[C@H](O)C(C)(C)[C@@H]4CC[C@@]3(C)[C@]1(C)C[C@@H]2O | 12.2 | 51.3 | 4.65 | 40.1 | 4.82 | 5.67 |  | 20.3 | 31.3 | > 100 |  |  |  |  |  |  |  |  |  |  |
| O=C([CH-]C(=O)c1ccccc1)c1ccccc1.[C-]#[O+].[C-]#[O+].[Ir] | > 100 | > 100 | > 100 | > 100 |  | > 100 |  | > 100 | > 100 |  | > 100 | 82.9 |  | 45.2 |  | 87 | > 100 |  | 42.9 | 33.3 |
| CC(NC(=O)Cc1ccc(OP(=O)(OCc2ccc([N+](=O)[O-])o2)N(C)CCCCCl)cc1)c1ccc(OCC2CCCCC2)c(C(N)=O)c1 (stereo not drawn) | 4.84 | 11 | 4.68 | 7.09 |  | 8.45 | 9.23 | 3.33 | 3.27 | 6.14 |  |  |  |  |  |  |  |  |  |  |
| CN(C)CCCNC(=O)N/N=C/c1ccc(O)cc1 | > 100 | > 100 | > 100 | > 100 |  | > 100 | > 100 | > 100 | > 100 | > 100 |  |  |  |  |  |  |  |  |  |  |
| CC[C@H](C)[C@H](NC(=O)N(CCC#N)CCN(CCN(C(=O)N[C@@H](Cc1ccccc1)C(=O)OC)c1ccccc1)C(=O)N[C@H](C(=O)OC)C(C)C)C(=O)OC | 37.9 | 41.2 | > 100 | 48.8 | 23.3 | 33.8 |  | 29.7 | 29 | 56.1 |  |  |  |  |  |  |  |  |  |  |
| COc1ccc(-c2nc(-c3ccc(OC)cc3)n(-c3ccccc3)n2)cc1 | > 100 | > 100 | > 100 | > 100 | > 100 | > 100 |  | > 100 | > 100 | > 100 |  |  |  |  |  |  |  |  |  |  |
